Measurements reported in ChEMBL document CHEMBL1681753, “Discovery of new inhibitor for PDE3 by virtual screening” (Bioorg Med Chem Lett, 2011).
pEC50, pIC50: −log10 of the molar value. Activity calls are given as the source filed them. The calls are words filed in the database; no cut-off is given here.

Columns and labels:
[1] = target: cGMP-inhibited 3',5'-cyclic phosphodiesterase 3B (Homo sapiens, UniProt Q13370); test: Inhibition of human recombinant PDE3B
[2] = target: cGMP-inhibited 3',5'-cyclic phosphodiesterase 3A (Homo sapiens, UniProt Q14432); test: Inhibition of human recombinant PDE3A
C3H 10T1/2 [3] = test: Induction of lipolysis in mouse C3H10T1/2 assessed as glycerol concentration at 10 uM relative to control; format: functional
Adipocyte = test: Induction of lipolysis in human Adipocyte assessed as glycerol concentration at 10 uM relative to control; format: functional
C3H 10T1/2 [4] = test: Induction of lipolysis in mouse C3H10T1/2 assessed as glycerol concentration; format: functional, cell-based
3T3-L1 [5] = test: Effect on adipogenesis in mouse 3T3L1 cells assessed as cellular lipid content by Oil red O staining; format: functional, cell-based
3T3-L1 [6] = test: Effect on adipogenesis in mouse 3T3L1 cells assessed as adiponectin mRNA expression by RT-PCR method; format: functional, cell-based
3T3-L1 [7] = test: Effect on adipogenesis in mouse 3T3L1 cells assessed as PPARgamma mRNA expression by RT-PCR method; format: functional, cell-based
3T3-L1 [8] = test: Effect on adipogenesis in mouse 3T3L1 cells assessed as FABP4 mRNA expression by RT-PCR method; format: functional, cell-based
3T3-L1 [9] = test: Effect on adipogenesis in mouse 3T3L1 cells assessed as G3PD mRNA expression by RT-PCR method; format: functional, cell-based

Sequence of cGMP-inhibited 3',5'-cyclic phosphodiesterase 3B (Q13370 whole entry): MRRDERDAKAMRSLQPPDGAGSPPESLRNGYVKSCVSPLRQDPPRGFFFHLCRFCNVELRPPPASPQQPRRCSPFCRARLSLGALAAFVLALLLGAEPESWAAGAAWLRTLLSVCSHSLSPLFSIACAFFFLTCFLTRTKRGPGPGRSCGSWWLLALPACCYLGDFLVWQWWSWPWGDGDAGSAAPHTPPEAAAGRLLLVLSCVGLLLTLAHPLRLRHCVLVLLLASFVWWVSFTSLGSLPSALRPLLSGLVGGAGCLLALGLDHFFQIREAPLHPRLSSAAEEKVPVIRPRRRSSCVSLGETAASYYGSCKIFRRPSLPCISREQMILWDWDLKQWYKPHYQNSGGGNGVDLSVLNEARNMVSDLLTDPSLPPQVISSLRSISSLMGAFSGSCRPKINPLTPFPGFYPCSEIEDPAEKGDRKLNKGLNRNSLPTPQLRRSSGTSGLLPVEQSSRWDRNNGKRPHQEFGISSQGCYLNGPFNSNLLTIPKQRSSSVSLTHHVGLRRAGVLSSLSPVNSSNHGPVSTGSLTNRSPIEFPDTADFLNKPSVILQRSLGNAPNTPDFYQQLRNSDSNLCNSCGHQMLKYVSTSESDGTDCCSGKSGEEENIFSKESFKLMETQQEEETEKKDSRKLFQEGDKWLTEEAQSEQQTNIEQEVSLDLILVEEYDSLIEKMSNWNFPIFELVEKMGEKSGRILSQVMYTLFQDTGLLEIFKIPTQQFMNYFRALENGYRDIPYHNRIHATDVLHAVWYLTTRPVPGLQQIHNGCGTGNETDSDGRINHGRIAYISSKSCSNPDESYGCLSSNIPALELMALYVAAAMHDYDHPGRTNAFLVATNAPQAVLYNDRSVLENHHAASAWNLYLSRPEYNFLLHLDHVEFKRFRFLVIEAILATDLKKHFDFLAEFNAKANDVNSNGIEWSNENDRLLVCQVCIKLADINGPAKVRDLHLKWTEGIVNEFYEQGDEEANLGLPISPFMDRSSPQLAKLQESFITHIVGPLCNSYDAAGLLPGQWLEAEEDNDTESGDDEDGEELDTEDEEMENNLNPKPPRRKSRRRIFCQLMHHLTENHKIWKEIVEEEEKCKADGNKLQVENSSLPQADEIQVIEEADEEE
Sequence of cGMP-inhibited 3',5'-cyclic phosphodiesterase 3A (Q14432 whole entry): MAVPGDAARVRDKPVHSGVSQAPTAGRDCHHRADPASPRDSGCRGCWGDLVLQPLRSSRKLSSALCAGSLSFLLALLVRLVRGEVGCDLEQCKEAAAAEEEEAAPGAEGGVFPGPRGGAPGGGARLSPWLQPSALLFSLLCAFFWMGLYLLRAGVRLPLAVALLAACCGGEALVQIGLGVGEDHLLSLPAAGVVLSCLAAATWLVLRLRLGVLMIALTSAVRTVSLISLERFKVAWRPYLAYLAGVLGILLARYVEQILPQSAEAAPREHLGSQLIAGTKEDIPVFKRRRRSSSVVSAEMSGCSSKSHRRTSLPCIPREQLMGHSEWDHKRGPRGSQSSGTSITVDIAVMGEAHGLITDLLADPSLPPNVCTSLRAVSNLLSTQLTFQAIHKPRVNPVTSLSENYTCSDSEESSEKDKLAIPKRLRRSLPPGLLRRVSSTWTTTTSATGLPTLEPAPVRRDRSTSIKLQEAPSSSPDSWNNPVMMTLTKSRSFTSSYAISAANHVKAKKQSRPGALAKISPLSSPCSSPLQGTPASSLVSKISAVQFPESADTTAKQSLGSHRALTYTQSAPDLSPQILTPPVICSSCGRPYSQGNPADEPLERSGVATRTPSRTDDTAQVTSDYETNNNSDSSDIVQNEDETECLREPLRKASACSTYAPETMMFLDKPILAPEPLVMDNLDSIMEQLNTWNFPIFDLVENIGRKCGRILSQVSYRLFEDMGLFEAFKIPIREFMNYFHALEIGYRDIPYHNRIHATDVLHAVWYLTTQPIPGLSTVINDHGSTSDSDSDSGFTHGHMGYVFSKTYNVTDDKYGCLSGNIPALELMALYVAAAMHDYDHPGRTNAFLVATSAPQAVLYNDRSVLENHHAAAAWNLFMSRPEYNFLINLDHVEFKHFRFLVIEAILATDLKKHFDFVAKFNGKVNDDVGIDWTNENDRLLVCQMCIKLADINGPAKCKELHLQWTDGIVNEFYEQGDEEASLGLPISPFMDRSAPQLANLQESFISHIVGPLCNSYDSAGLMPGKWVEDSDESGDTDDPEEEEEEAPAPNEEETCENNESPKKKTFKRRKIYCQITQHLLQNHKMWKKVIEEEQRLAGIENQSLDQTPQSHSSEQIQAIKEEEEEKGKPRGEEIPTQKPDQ

| pIC50 [1] | pIC50 [2] | pEC50 (C3H 10T1/2 [4]) | Structure (SMILES) | Activity (C3H 10T1/2 [3]) [%] | Activity (Adipocyte) [%] | Activity (3T3-L1 [5]) | Activity (3T3-L1 [6]) | Activity (3T3-L1 [7]) | Activity (3T3-L1 [8]) | Activity (3T3-L1 [9]) |
| --- | --- | --- | --- | --- | --- | --- | --- | --- | --- | --- |
| 7.05 | 7.83 | 8.05 | C/C(=N\NS(=O)(=O)c1ccc(C)cc1)c1ccc2c(c1)C(C)(C)C(=O)N2 | 191.7 | 171.5 | Active | Active | Active | Active | Active |
| 7.16 |  | 8.04 | CN(C(=O)CCCOc1ccc2[nH]c(=O)ccc2c1)C1CCCCC1 [CILOSTAMIDE] | 247.36 | 192.4 | Active | Active | Active | Active | Active |
|  |  | 8.17 | CC1=NN(S(=O)(=O)c2ccc(C)cc2)C(O)(C(F)(F)F)C1 (stereo not given) | 171.3 | 116.67 |  |  |  |  |  |

Second part, the compound before the results:

| Structure (SMILES) | pIC50 [1] | pIC50 [2] | pEC50 (C3H 10T1/2 [4]) | Activity (C3H 10T1/2 [3]) [%] | Activity (Adipocyte) [%] | Activity (3T3-L1 [5]) | Activity (3T3-L1 [6]) | Activity (3T3-L1 [7]) | Activity (3T3-L1 [8]) | Activity (3T3-L1 [9]) |
| --- | --- | --- | --- | --- | --- | --- | --- | --- | --- | --- |
| CCCC(NS(=O)(=O)c1ccc2c(c1)CCCC(=O)N2)c1cccs1 (stereo not given) |  |  |  | 131.9 | 130.2 |  |  |  |  |  |
| Cc1ccc(S(=O)(=O)N/N=C2\CC(C)(C)Oc3ccc([N+](=O)[O-])cc32)cc1 |  |  | 8.28 | 168.4 | 116.67 |  |  |  |  |  |
| CC(C)NCC(O)c1ccc(O)c(O)c1 (stereo not given) [ISOPROTERENOL] |  |  | 7.72 | 291.3 | 214.39 |  |  |  |  |  |
